From US11369588B2, “NADPH production by the 10-formyl-THF pathway, and its use in the diagnosis and treatment of disease” (The Trustees of Princeton University, priority 2014, dated 2022)
Values joined by “and” are separate entries in the source; they are usually repeats but may differ in a detail not shown here. Identical values can stand only once.

What was measured:
[1] = system: oxPPP; assay: oxPPP tracing: NADPH labeling from 1-2H-glucose in 3T3-L1 cells; format: cell-based; conditions: proliferating 3T3-L1 cells, tracer fed 2 h
Experimental: In one embodiment, PPP activity is measured by incubating cultured adipocytes (e.g., 3T3-L1 adipocytes) in the presence of 1-^14C-glucose versus 6-^14C-glucose and detecting the released ^14CO2. The oxPPP releases C1 of glucose as CO2. The 6-^14C-glucose corrects for release of C1 by other pathways, because C1 and C6 are rendered identical by the triose phosphate isomerase step in glycolysis. After determining the oxPPP flux, the cells are provided with 1-^2H-glucose, which selectively labels NADPH in the first step (G6PDH) of the PPP.
Two complimentary methods were used to measure oxPPP activity in the proliferating and differentiating 3T3-L1 cells. First, cells were cultured in the presence of 1-^14C-Glucose versus 6-^14C-Glucose and the release of ^14CO2 was detected. The oxPPP releases C1 of glucose as CO2. The 6-^14C-Glucose corrects for release of C1 by other pathways, because C1 and C6 are rendered identical by the triose phosphate isomerase step in glycolysis. […] Next, cells were fed 1-^2H-Glucose, which selectively labels NADPH in the first step (G6PDH) of the oxPPP, and can therefore be used to determine the fraction of NADPH made by the oxPPP. In the proliferating cells, M+1 NADPH exceeded M+1 NADP+ by ˜16% (FIG. 18). […] In contrast, in the differentiating adipocytes, there was much less NADPH labeling from 1-^2H-Glucose. […]

[2] = system: malic enzyme; assay: Tracing hydride flux through malic enzyme with 2H tracers in 3T3-L1 cells (LC-MS labeling of malate, aspartate, NADPH, fatty acids); format: cell-based; conditions: for fraction of M+1 aspartate / fraction of M+1 malate / fraction of M+2 malate: differentiating 3T3-L1 adipocytes day 5; for fatty acid 2H-labeling, M+0 fraction / fatty acid 2H-labeling, M+1 fraction / fatty acid 2H-labeling, M+2 fraction: tracer 5 days
From the text: To more directly establish the contribution of malic enzyme to NADPH production, cells are provided with the ^2H-labeled succinate analogue, 2,2,3,3-^2H-dimethyl-succinate, and deuterium labeling is followed through the C2 hydride of malate to NADPH and finally to newly synthesized fatty acid molecules (FIGS. 15A-15F). Although any suitable labeled molecule may be used to trace hydride flux from malate to NADPH and subsequently into fat, it is preferred to use 2,2,3,3-^2H-dimethyl-succinate for the above purpose.
NADPH labeling at its redox active hydride was analyzed by comparing the M+1 fraction of NADPH to NADP+.
Converting the NADPH labeling fraction from 2,2,3,3-^2H-dimethyl-succinate into the fractional NADPH contribution of malic enzyme requires two important corrections: (i) fractional ^2H-labeling of malate's C2 hydride and (ii) the malic enzyme deuterium kinetic isotope effect (approximately 1.5).
2,2,3,3-^2H-dimethyl succinate was used to track hydride transfer mediated by malic enzyme. Tracer addition increased the cellular concentration of succinate without markedly perturbing other metabolite concentrations or fluxes. Labeling from 2,2,3,3-^2H-dimethyl succinate was followed through the C2 hydride of malate to NADPH and finally to newly synthesized fatty acids. NADPH labeling at its redox active hydride was analyzed by comparing the M+1 fraction of NADPH to NADP^+. […] Adjustment for the kinetic isotope effect in hydride transfer from NADPH to fat (˜1.1) (Yuan, Z. et al. (1984) “Elementary Steps in the Reaction Mechanism of Chicken Liver Fatty Acid Synthase,” 259:6748-6751) yields an associated cytosolic NADPH labeling fraction of 3.2%±0.5%, in excellent agreement with the directly measured whole cell NADPH labeling.
The NADPH labeling fraction from [2,2,3,3-^2H] dimethyl succinate was converted into the fractional NADPH contribution of malic enzyme is accordance with Equation 15. Forward flux from 2,2,3,3-^2H-succinate results in 2,3-^2H-malate, i.e., M+2 malate. The observed fraction of M+2 malate was, however, only 1.5%. The larger peak was M+1 malate (10.9%). Reverse flux through malate dehydrogenase can produce M+1 malate labeled at the C3 hydride (3-^2H-malate). As fumarate is symmetric, fumarase will interconvert 3-^2H-malate and 2-^2H-malate. Because malic enzyme will produce NADPH selectively from malate labeled at the C2 hydride, the relative abundance of 2-^2H-malate versus 3-^2H-malate was determined. 3-^2H-malate (and also 2,3-^2H-malate) yields M+1 oxaloacetate and aspartate, whereas 2-^2H-malate yields unlabeled oxaloacetate and aspartate. […] Summing 2-^2H-malate and 2,3-^2H-malate, the fraction of malate that is capable of making NADPH was 7.9%. Thus, while 2,2,3,3-^2H-dimethyl succinate labeled only approximately 3.2% of NADPH, after adjusting for the extent of malate labeling and the malic enzyme kinetic isotope effect, the fraction of NADPH generated via malic enzyme was calculated to be is approximately 60%.
4-^2H-glucose was therefore employed as a metabolic tracer. Cells were grown in 6 cm tissue culture dishes, and the labeled medium was replaced every day, and additionally 2 hours before extracting metabolites. Because labeling of glycolytic and oxPPP intermediates and the redox active hydride of NADPH reaches steady state over approximately 5 min, where for TCA intermediates this can take several hours, to ensure steady-state labeling, oxPPP tracing with 1-^2H-glucose and 1,2-^13C-glucose is performed for a minimum of 30 min and other labeling experiments for a minimum of 12 h. Metabolism is then quenched and metabolites extracted by aspirating media and immediately adding 2 mL −80° C. 80:20 methanol:water. After 20 min. of incubation on dry ice, the resulting mixture was scraped, collected into a centrifuge tube, and centrifuged at 10000 g for 5 min. Insoluble pellets were re-extracted with 1 mL −80° C. 80:20 methanol: water on dry ice. […]

[3] = system: methylene-THF oxidation pathway; assay: Folate pathway tracing: NADPH labeling from 2,3,3-2H-serine in 3T3-L1 cells; format: cell-based
[4] = system: HEK293T cells; conditions: 3 days, DMEM no serine, 5 mM glycine instead of 0.4 mM
[5] = system: HEK293T cells; conditions: non-growing HEK293T cells, 150 μM H2O2, 5 h
Experimental: Total cytosolic NADPH turnover was measured based on the absolute oxPPP flux divided by the fractional contribution of the oxPPP to total NADPH as measured using NADP2H formation from 1-^2H-glucose. Mean±SD, N=3.

SMILES: [2H]C1(O)OC(CO)C(O)C(O)C1O (stereo not drawn) [1-^2H-Glucose]
- excess of M+1 NADPH over M+1 NADP+ [1]: ~16%

SMILES: [2H]C([2H])(C(=O)OC)C([2H])([2H])C(=O)OC [2,2,3,3-^2H-dimethyl succinate]
- fraction of 2-2H-malate ([2]; M+1 plus M+2 malate minus M+1 aspartate, differentiating 3T3-L1 adipocytes): approximately 6.4%
- fraction of NADPH generated via malic enzyme ([2]; after adjusting for malate labeling and malic enzyme kinetic isotope effect, normoxic differentiating 3T3-L1 adipocytes): approximately 60%
- fraction of malate capable of making NADP2H (2-2H-malate plus 2,3-2H-malate) ([2]; differentiating 3T3-L1 adipocytes): 7.9%
- fraction of M+1 aspartate [2]: 6.0%
- fraction of M+1 malate [2]: 10.9%
- fraction of M+2 malate [2]: 1.5%
- average hydride 2H-labeling fraction of a set of abundant fatty acids ([2]; differentiating 3T3-L1 adipocytes, newly synthesized fatty acids only): 2.87%±0.31%
- fatty acid 2H-labeling, M+0 fraction ([2]; differentiating 3T3-L1 cells): approximately 60%
- fatty acid 2H-labeling, M+1 fraction ([2]; differentiating 3T3-L1 cells): ~30%
- fatty acid 2H-labeling, M+2 fraction ([2]; differentiating 3T3-L1 cells): ~10%
- total adipocyte (whole cell) NADPH labeled at redox active hydride ([2]; differentiating (day 5) 3T3-L1 adipocytes, tracer fed 24 h): 3.4%±0.3%
- fatty acid 2H-labeling, M+0 fraction ([2]; proliferating 3T3-L1 cells): 100%

SMILES: [2H]C([2H])(O)[C@]([2H])(N)C(=O)O [2,3,3-^2H-serine]
- labeling of NADPH at its redox active hydride [3]: approximately 3%

SMILES: [2H][C@@]1(O)[C@@H](CO)OC(O)[C@H](O)[C@@H]1O (stereo partly drawn) [4-^2H-glucose]
- fraction of M+1 aspartate [2]: 4.3% and 4.3 ± 0.1%
- fraction of M+1 malate [2]: 12.3% and 12.3 ± 0.1%
- fraction of M+2 malate [2]: 0.3% and 0.3 ± 0.0%
- fatty acid 2H-labeling, M+0 fraction ([2]; differentiating 3T3-L1 cells): approximately 60%
- fatty acid 2H-labeling, M+1 fraction ([2]; differentiating 3T3-L1 cells): ~35%
- fatty acid 2H-labeling, M+2 fraction ([2]; differentiating 3T3-L1 cells): ~5%
- fatty acid 2H-labeling, M+0 fraction ([2]; proliferating 3T3-L1 cells): 100%

SMILES: NCC(=O)O [glycine]
- cell growth (relative cell number) [4]: inhibit cell growth
- relative NADPH/NADP+ ratio [4]: decrease the NADPH/NADP+ ratio

SMILES: OO [hydrogen peroxide]
- total cytosolic NADPH production rate [5]: 5.5 nmol/µL/h
